Assays:
[1] = VFA analysis and digesta pH in ileum, caecum and colon, Example 5; format: in vivo, pig; settings: for total VFAs: increasing LAM
Source text: 21 pigs with an initial weight of 17.9±2.2 Kg were assigned to one of the 3 dietary treatments: (T1) control; (T2) basal diet+300 ppm LAM; (T3) basal diet+600 ppm LAM. Experimental feeding continued for 21 days ad libitum. Diets were formulated to have similar digestible energy (DE) (14.4 MJ/Kg) and ileal digestible lysine (12.5 g/Kg). Post-slaughter, digestive tract was removed by dissection and digesta was removed from the ileum. Each digesta sample was serially diluted in maximum recovery diluent (MRD, Oxoid, Basingstoke, UK), and spread plated onto selective agars. Bifidobacteria, Lactobacilli and Enterobacteria species were isolated according to the methods described by Pierce et al. (2005). Digesta samples used to measure VFA concentration were collected from the caecum and the same location in the ileum and colon. VFA analysis was performed using gas liquid chromatography (GLC) according to the method described by Pierce et al., (2005).

[2] = Pig performance post weaning with LAM and FUC, Example 4; format: in vivo
Source text: (§1) One hundred and ninety two piglets were weaned at twenty four days of age, with an initial live weight of 6.4±0.785 Kg and assigned to one of four dietary treatments or 21 days post weaning. The dietary treatments consisted of (T1) basal diet, (T2) basal diet with 300 ppm LAM, (T3) basal diet with 236 ppm FUC, (T4) Basal diet with 300 ppm LAM and 236 ppm FUC. Diets were formulated to have identical concentrations of digestible energy (DE) (16 MJ/Kg) and ileal digestible lysine (14 g/Kg). All amino acid requirements were met relative to lysine (Close, 1994). Chromium III oxide was added to the diets for determination of nutrient digestibility. The LAM and FUC were derived from Laminaria hyperborea.
(§2) Piglets were housed in groups of 4 and offered feed twice daily. Water was supplied ad-libitum. Any pig displaying symptoms of illness was treated appropriately and recorded. Pigs were weighed on day 0 (day of weaning), 7, 14 and 21. Feed intake was monitored weekly. Fresh faecal samples were taken on day 10 and were analysed for E. coli and Lactobacilli concentrations. Faeces samples were collected from each pen on day 12-17 and were retained for chemical analysis. Fresh faecal samples were removed on day 14 and were frozen and retained for volatile fatty acid analysis. Fresh faecal samples were taken on day 17 for pH determination.

IL-8 = test: Cytokine gene expression in unchallenged ileum and colon tissue (qPCR), Example 5; format: in vivo, pig; settings: unchallenged ileum or colon tissue; LAM 300, 600 ppm
Experimental: (§3) 21 pigs with an initial weight of 17.9±2.2 Kg were assigned to one of the 3 dietary treatments: (T1) control; (T2) basal diet+300 ppm LAM; (T3) basal diet+600 ppm LAM. Experimental feeding continued for 21 days ad libitum. Diets were formulated to have similar digestible energy (DE) (14.4 MJ/Kg) and ileal digestible lysine (12.5 g/Kg).
(§4) Ileal and colonic tissues was stabilised in RNAlater® solution and stored overnight at 4° C. The following day, RNAlater® was removed and samples were stored at −86° C. prior to RNA extraction.
(§5) Tissue samples for RNA extraction were removed from −86° C. and homogenised. 500 μl of lysis solution/2-ME was added to each sample and these were mechanically disrupted using one 5 mm stainless steel bead per sample. These were then placed in a Tissue Lyser (Qiagen) and lysates were homogenised for 3 mins and transferred to a GenElute Filtration Column (Sigma Aldrich) and RNA was extracted. 1 µg of total RNA was used for cDNA synthesis using oligo(dT)20 primer in a final reaction volume of 20 μl with Superscript™ III First-Strand synthesis system for reverse transcriptase-polymerase chain reaction (RT-PCR) (Invitrogen Life Technologies, Carlsbad, Calif.). At the last step of cDNA synthesis, treatment with E. coli RNase H (Invitrogen Corp.) was performed to digest the remaining RNA/mRNA template, resulting in the production of the single-stranded cDNA template for subsequent qRT-PCR reactions.
(§6) All porcine primers for the cytokine genes interferon gamma (IFN-γ), interleukin-1α (IL-1α), IL-6, IL-8, IL-10, IL-17, tumour necrosis factor (TNF-α), the mucin genes (MUCs 1, 2, 4, 5AC, 12, 13 and 20) and three reference genes, β-actin (ACTB), Glyceraldehyde-3-phosphate dehydrogenase (GAPDH) and Peptidylprolyl isomerase A (PPIA), were designed using Primer Express™ (PE Applied Biosystems, Foster City, Calif.) and synthesised by MWG Biotech (Milton Keynes, UK). These reference genes were previously validated for use in porcine tissue and qPCR was then carried out on the cDNA using the ABI PRISM 7900HT Fast sequence detection system for 96-well plates (Applied Biosystems, Foster City, Calif.). All samples were prepared in duplicate using SYBR Green Fast PCR Master Mix (Applied Biosystems, Foster City, Calif.), cDNA as template and specific primers for the genes selected. For each reaction 5 μl cDNA, 1.2 μl (forward and reverse primer mix, 5 μM), 10 μl Fast SYBR Green PCR Master Mix (PE Applied Biosystems, Foster City, Calif.) was added and made up to a final volume of 20 μl. The two step PCR program was as follows: 95° C. for 10 minutes for 1 cycle followed by 95° C. for 15 seconds and 60° C. for 1 minute for 40 cycles. The raw Ct values for the reference genes were converted to relative quantities using the formula Q=E ^ΔCt where E is the PCR efficiency of the assay and ^ΔCt is the value calculated for the difference between the lowest Ct value for each gene minus the Ct value of the sample in question. The relative quantities of the endogenous controls were then analysed for stability in geNorm (Vandesompele et al., 2002). The stability ‘M’ value generated by the geNorm application for the selected endogenous controls (ACTB, GAPDH and PPIA) indicated their suitability as endogenous controls for these intestinal samples. The geometric mean of the relative quantities for ACTB, GAPDH and PPIA (normalisation factor) was then calculated using geNorm. The relative quantities of each target gene were divided by the normalisation factor (obtained in geNorm) for that sample to give the final normalised relative expression.

IL-10 = test: as above; format: in vivo, pig; settings: unchallenged ileum or colon tissue; LAM 300, 600 ppm
Experimental: as §3, §4, §5, §6

IL-6 = test: as above; format: in vivo, pig; settings: unchallenged ileum or colon tissue; LAM 300, 600 ppm
Experimental: as §3, §4, §5, §6

Escherichia coli = test: Faecal microbiology, Example 4; format: in vivo, pig; settings: LAM diets (300 ppm) v no LAM supplementation (7.84)
Source text: as §1, §2
A sample was serially diluted (1:10) in 9.0 ml aliquots of maximum recovery diluent (MRD, Oxoid, Basingstoke, UK), and spread plated (0.1 ml aliquots) onto selective agars. Lactobacillus spp. were isolated on de Man, Rogosa, Sharp agar (MRS, Oxoid) with overnight incubation at 37° C. in 5% CO2. The API 50 CHL (BioMerieux, France) kit was used to confirm suspect Lactobacilli spp. E. coli species were isolated on MacConkey agar (Oxoid), following aerobic incubation at 37° C. for 18-24 hours. Suspect colonies were confirmed with API 20E (BioMerieux, France).

laminarin
digesta pH ([1]; any intestinal region): no significant alteration
total VFAs ([1]; caecum): significant increase
total VFAs ([1]; ileum or colon): no significant effects
Gain: Feed ratio ([2]; days 7-14, LAM supplemented diets (300 ppm) v unsupplemented (0.569)): 0.763
ADG ([2]; days 7-14 post weaning, LAM supplemented diets (300 ppm) v diets with no LAM (0.266)): 0.344
ADG ([2]; entire experimental period, LAM supplemented diets (300 ppm) v no LAM (0.232)): 0.324
Gain: Feed ratio ([2]; entire experimental period, LAM supplemented diets (300 ppm) v unsupplemented (0.646)): 0.703
average daily feed intake ([2]; weaned pigs, 21 days, LAM 300 ppm, FUC 236 ppm): no effect
IL-8 gene expression (IL-8): no effects
IL-10 gene expression (IL-10): no effects
IL-6 gene expression (IL-6): no effects
faecal E. coli population (Escherichia coli): 7.22
